Data taken from patent US20230398101A1, “Co-agents as Therapy Against Anaerobic Pathogens” (priority 2022, published 2023).

Experiments:
Assay in all cases: Aerobic agar-dilution AST of facultative anaerobes (MIC, checkerboard FIC)
Assay type in all cases: cell-based
Staphylococcus aureus = test system: Staphylococcus aureus; parameters: MIC (Table 10C, head prints neither MIC nor unit): unit not given beside the values; details: for MIC (Table 10C, head prints neither MIC nor unit): strain (MR) 920516, aerobic; for MIC: Staphylococcus aureus
Pseudomonas aeruginosa = details: Pseudomonas aeruginosa, Pseudomonas aeruginosa 945748; read-out: MIC
Acinetobacter baumannii = Acinetobacter baumannii 919899, read-out: MIC
Enterococcus faecalis = details: Enterococcus faecalis

CC(C)c1ccc(Cn2ccc3c4c(N)nc(NC5CC5)nc4ccc32)cc1 [Q]
MIC (Table 10C, head prints neither MIC nor unit) (Staphylococcus aureus): 32

Cc1cc(NS(=O)(=O)c2ccc(N)cc2)no1 [S, sulfamethoxazole]
MIC (Table 10C, head prints neither MIC nor unit) (Staphylococcus aureus): >608

C[C@@H](O)[C@H]1C(=O)N2C(C(=O)O)=C(S[C@@H]3CN[C@H](C(=O)N(C)C)C3)[C@H](C)[C@H]12 [meropenem]
MIC (Pseudomonas aeruginosa): 8 µg/mL
MIC (Acinetobacter baumannii): > 64 µg/mL

CCCCCCCCCCNCCN[C@@]1(C)C[C@H](O[C@H]2[C@H](Oc3c4cc5cc3Oc3ccc(cc3Cl)[C@@H](O)[C@@H](NC(=O)[C@@H](CC(C)C)NC)C(=O)N[C@@H](CC(N)=O)C(=O)N[C@H]5C(=O)N[C@H]3C(=O)N[C@H](C(=O)N[C@H](C(=O)O)c5cc(O)c(CNCP(=O)(O)O)c(O)c5-c5cc3ccc5O)[C@H](O)c3ccc(c(Cl)c3)O4)O[C@H](CO)[C@@H](O)[C@@H]2O)O[C@@H](C)[C@H]1O [telavancin]
MIC (Staphylococcus aureus): 0.25 µg/mL
MIC (Staphylococcus aureus; ATCC33591): 0.125 µg/mL

CN[C@H](CC(C)C)C(=O)N[C@H]1C(=O)N[C@@H](CC(N)=O)C(=O)N[C@H]2C(=O)N[C@H]3C(=O)N[C@H](C(=O)N[C@H](C(=O)O)c4cc(O)cc(O)c4-c4cc3ccc4O)[C@H](O)c3ccc(c(Cl)c3)Oc3cc2cc(c3O[C@@H]2O[C@H](CO)[C@@H](O)[C@H](O)[C@H]2O[C@H]2C[C@](C)(N)[C@H](O)[C@H](C)O2)Oc2ccc(cc2Cl)[C@H]1O [vancomycin]
MIC (Enterococcus faecalis): 1 µg/mL
MIC (Enterococcus faecalis; ATCC51559): > 32 µg/mL
MIC (Staphylococcus aureus): 1 µg/mL
MIC (Staphylococcus aureus; ATCC33591): 2 µg/mL
